# Assay results from patent US9381349B2, “Apparatus for treating cerebral neurovascular disorders including headaches by neural stimulation” (priority 1997, dated 2016).
# “Also recorded” adds a separate entry of the source. Where two headings read alike, the source gives them in different places.
# Assays:
# [1] = in vivo; cited from earlier work
# [2] = n-heptane/buffer biphasic system; cited from earlier work
# [3] = test system: acute migraine episodes; test: Dorsonasal administration of bupivacaine for inhibition of acute migraine episodes (Example 2); assay type: in vivo, human
# Description: (§1) The purpose of the experiments described in this Example was to determine the efficacy of dorsonasal administration of bupivacaine for inhibition of acute migraine episodes. Bupivacaine was dorsonasally administered to individual patients experiencing head pain, other symptoms, or both, believed to be associated with an acute migraine episode. Patients assessed head pain prior to and after bupivacaine administration.
# The materials and methods used in the procedures performed in this Example were substantially the same as the materials and methods described in Example 1, with the exception that the composition which was administered to the patients described in this example comprised a 0.75% (w/v) solution of bupivacaine.
# The organization of and the abbreviations used in Table 6 are analogous to those used in Table 1, with the exception that “B” in the treatment column refers to bupivacaine.
# [4] = cited from earlier work
# [5] = test system: muscular headache; test: Dorsonasal administration of bupivacaine for muscular headache episodes (Example 5); assay type: in vivo, human; details: for Pain intensity after administration: 0.75% bupivacaine
# Description: The purpose of the experiments described in this Example was to determine the efficacy of dorsonasal administration of bupivacaine for inhibition of muscular headaches. Bupivacaine was dorsonasally administered to four individual patients experiencing head pain and other symptoms associated with a severe muscular headache episode. All of the patients had areas of sustained craniocervical muscle contraction and tenderness which was absent in all patients following headache resolution. Patients assessed head pain prior to and after bupivacaine administration. The four patients and their responses were as follows.
# [6] = test system: headache; test: Dorsonasal headache treatment using bupivacaine (Example 8); assay type: in vivo, human; details: two patients
# Protocol: Two different headache patients were treated by delivering about 0.25-0.75 milliliters of a 0.75% (w/v) bupivacaine solution to each nostril of the patients. The solution was administered by passing the solution along a plastic cannula having an absorbent portion affixed at the distal (i.e., outlet) portion thereof. This cannula had also been bent to conform its shape such that the outlet of the cannula and the affixed absorbent portion were located dorsonasally. The solution was passed along the cannula, and the cannula was left in place for several minutes.
# [7] = test system: migraine; details: intranasal spray of 1-2 milliliters 4% (w/v) lidocaine; within fifteen minutes; cited from earlier work
# [8] = test system: headache; details: 10% (w/v) lidocaine solution sprayed through dorsonasal cannula; three patients
# Protocol: The solution was administered by spraying it through a plastic cannula which had been bent to conform its shape such that the outlet of the cannula was located dorsonasally. The cannula was inserted into each nostril, and the solution was sprayed through the cannula, exiting therefrom through the outlet.
# [9] = test system: migraine; details: lidocaine, Intranasal Spray; 10-point pain scale
# [10] = test system: nerve structure; details: intranasally administered; cited from earlier work
# [11] = test system: acute migraine episodes; assay type: in vivo, human
# Description: as §1, with “ropivacaine” for “bupivacaine”, “Ropivacaine” for “Bupivacaine”
# Ropivacaine-HCl (NAROPINT™, Astra USA, Westborough, Mass.) was used as the commercially-available 0.75% (w/v) solution, and was obtained in 30 milliliter, sterile injectable vials.
# Three methods were used to achieve dorsonasal delivery of ropivacaine to individual patients. Ropivacaine was administered to a first group of patients by an intranasal drip method. Ropivacaine was administered to a second group using cotton swabs, the absorbent portions of which were saturated with the ropivacaine solution. Ropivacaine was administered to patients in a third group by spraying the ropivacaine solution into each nostril, using either a squeeze-type spray bottle or a metered-dose spray bottle.
# The intranasal drip method used to administer ropivacaine to the first group of patients was a based on the method described by Barre (1982, Headache 22:69-73), except that the ropivacaine solution was used in place of the solution used by Bane. Approximately 0.75 milliliter to approximately 1.0 milliliter of the ropivacaine solution was administered by way of each of the nostrils of each patient.
# The cotton swab method used to administer ropivacaine to the second group of patients comprised gently inserting cotton swabs, sequentially and bilaterally, into the nostrils of patients and urging the swabs dorsally until their absorbent portions contacted portions of nasal epithelium located dorsal to the middle conchae. Each swab was left in place for approximately one minute, and was then withdrawn. Approximately 0.5 milliliter of the ropivacaine solution was delivered to each nostril using this method.
# Patients in a third group were administered ropivacaine by spraying less than about 0.5 milliliter of the ropivacaine solution into each of the patient's nostrils using either a sterile squeeze bottle or a sterile metered-dose spray bottle of known design. The design and operation of each of these spray bottles are well known in the art.
# Prior to administration of ropivacaine, each patient was placed in a supine position with the patient's head hyperextended approximately 45 degrees and rotated approximately 30 degrees to the right side. In this position, an imaginary line extending from the region of the nasal epithelium overlying the SPG of the patient through the patient's left nostril was approximately vertical. Ropivacaine was then administered to the left nostril of the patient as described for each of the three groups of patients. Ropivacaine was administered to each patient's right nostril after rotating the patient's head approximately 30 degrees to the left. Ropivacaine was administered to both nostrils of each patient to prevent cases of unilateral migraine from developing into contralateral migraine.
# Prior to ropivacaine administration, each patient rated perceived headache pain according to a standard pain scale of the type used in the art. Patients were asked to rank the severity of pain which they were experiencing on a scale from 0 (no pain) to 10 (worst pain imaginable). This ten-point pain rating scale is analogous to, but has more gradations than, the four-point rating system used by the International Headache Society (IHS; Headache Classification Committee of the International Headache Society, 1988, Cephalalgia 8(Suppl. 7):19-28). Ropivacaine was administered to one nostril of each patient, and then to the other. The time required to administer ropivacaine to both nostrils of each patient was approximately three minutes. […]
# [12] = test system: tinnitus; test: Inhibition of tinnitus by dorsonasal administration of ropivacaine (Example 4); assay type: in vivo, human; details: patient 4-2
# Description: Ropivacaine was dorsonasally administered to each of three patients using the nasal spray method or the nasal drops method described herein.
# [13] = bupivacaine 0.75% (w/v), 2 Sprays, individual patients, pain scale 0-10
# [14] = bupivacaine 0.75% (w/v), 2 cc Drops, individual patient, pain scale 0-10
# [15] = lidocaine 2.0% (w/v), 1 cc Drops, individual patients, pain scale 0-10
smiles,measurement,setting,value
"CCCN1CCCC[C@@H]1C(=O)Nc1c(C)cccc1C (single isomer, unassigned) [R(dextro) enantiomer of ropivacaine]",Cardiotoxicity,[1],Cardiotoxicity is a side effect
"CCCCN1CCCCC1C(=O)Nc1c(C)cccc1C (stereo not shown) [Bupivacaine, bupivacaine]",Partition coefficient relative to lidocaine,[2],about 10 times
same,Pain 5 min post-treatment,"[3]; bupivacaine 0.75% (w/v), 2 Sprays, individual patients (first or 2nd treatment), pain scale 0-10, listed as B",Pain 5 min post-2nd-treatment: 0
same,Rebound / recurrence at follow-up,"[3]; bupivacaine 0.75% (w/v), 2 Sprays, individual patients, listed as B",Recurrence 4 hours post-treatmt; also recorded: No rebound up to 24 hours
same,Pain 3 min post-treatment,[3]; [13],Pain 3 min post-treatment: 0
same,Pain 10 min post-treatment,[3]; [13],Pain 10 min post-treatment: 0
same,Associated symptom after treatment,"[3]; bupivacaine 0.75% (w/v), 2 cc Drops, P2#3",Head pressure persisted
same,Pain 5 min post-treatment,[3]; [14],Pain 5 min post-treatment: 1-2
same,Pain 10 min post-treatment,[3]; [14],Pain 10 min post-treatment: 0
same,Rebound at follow-up,"[3]; bupivacaine 0.75% (w/v), 2 cc Drops, individual patients",No rebound up to 24 hours
same,Rebound at follow-up,"[3]; bupivacaine 0.75% (w/v), Sat'd Cotton Swab, individual patient",No rebound up to 24 hours
same,Pain 5 min post-treatment,"[3]; bupivacaine 0.75% (w/v), Sat'd Cotton Swab, individual patient, pain scale 0-10",Pain 5 min post-treatment: 0
same,Time to arrest of migraine,"[3]; bupivacaine 0.75% (w/v), all seven patients",≤ 10 min
same,Rebound of migraine within twenty-four hours of treatment,"[3]; bupivacaine 0.75% (w/v), seven patients",Six of the seven patients treated using bupivacaine experienced no rebound
same,Efficacy for relief of headache pain associated with migraine,[3]; preliminary data,efficacy similar to that of ropivacaine
same,Proportion bound to protein in vivo,[4],Approximately 95%
same,Pain intensity after administration,"[5]; Patient 1, from about 8, within about 15 minutes, tension headache",0
same,Pain intensity after administration,"[5]; Patient 2, from about 7, within about 7 minutes, muscle contraction headache",0
same,Muscle knots after treatment,"[5]; Patient 4, 5 minutes after treatment",muscle knots were no longer perceived
same,Pain intensity after administration,"[5]; Patients 3 (from about 5) and 4 (from about 7), within about 5 minutes, tension headache",about 1
same,Relief from headache symptoms,[6]; 0.75% (w/v) bupivacaine solution via cannula with absorbent portion,Both of these patients experienced rapid relief
same,Rebound of headache symptoms,"[6]; 0.75% (w/v) bupivacaine solution, follow-up about one day",neither patient experienced rebound of headache symptoms within about one day
"CCN(CC)CC(=O)Nc1c(C)cccc1C [Lidocaine, lidocaine]",Patients with decreased head pain / effectiveness to reduce migraine pain,[7],55%
same,Relief from headache symptoms,[8],All three patients experienced rapid relief
same,Rate of Pain Relief (migraine pain reduction per minute per gram of drug),[9],10.0
same,Duration of action,[10],shorter than about one hour
same,Oropharyngeal numbness,"[11]; human, in vivo, 15 min",6
same,Pain 5 min post-treatment,[11]; [15],Pain 5 min post-treatment: 2
same,Pain 30 min post-treatment,[11]; [15],Pain 30 min post-treatment: 6
same,Pain 45 min post-treatment,[11]; [15],Pain 45 min post-treatment: 6^B
Oc1ccc2c(c1)[C@@]13CCCC[C@@]1(O)[C@@H](C2)N(CC1CCC1)CC3 [butorphanol],Effect of intranasal butorphanol on chronic non-headache pain following intranasal ropivacaine,[12],faster onset and a far more powerful effect
